Experimental findings from ChEMBL document CHEMBL5126555, “Targeting breast cancer resistance protein (BCRP/ABCG2): Functional inhibitors and expression modulators” (Eur J Med Chem, 2022) are described below.

In series [1] the target is T1, Broad substrate specificity ATP-binding cassette transporter ABCG2 (Homo sapiens, UniProt Q9UNQ0).
T1 sequence (Q9UNQ0 whole entry): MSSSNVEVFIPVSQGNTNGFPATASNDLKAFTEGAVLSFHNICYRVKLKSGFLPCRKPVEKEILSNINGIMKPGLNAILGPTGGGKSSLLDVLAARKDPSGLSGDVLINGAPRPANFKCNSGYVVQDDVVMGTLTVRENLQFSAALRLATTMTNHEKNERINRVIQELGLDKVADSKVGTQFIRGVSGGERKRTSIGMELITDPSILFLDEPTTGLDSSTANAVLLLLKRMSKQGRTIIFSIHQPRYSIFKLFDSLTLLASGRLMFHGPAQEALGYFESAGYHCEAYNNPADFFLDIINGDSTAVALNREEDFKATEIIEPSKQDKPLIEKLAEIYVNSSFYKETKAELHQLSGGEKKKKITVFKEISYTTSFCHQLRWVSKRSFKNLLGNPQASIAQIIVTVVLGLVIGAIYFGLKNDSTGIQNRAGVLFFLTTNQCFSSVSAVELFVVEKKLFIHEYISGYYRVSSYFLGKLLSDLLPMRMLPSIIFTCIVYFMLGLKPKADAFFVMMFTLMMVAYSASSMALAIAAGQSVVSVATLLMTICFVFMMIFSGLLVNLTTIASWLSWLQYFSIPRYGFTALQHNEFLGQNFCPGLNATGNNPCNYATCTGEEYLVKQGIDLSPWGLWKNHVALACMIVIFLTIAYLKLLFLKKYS
In words: Inhibition of ABCG2 (unknown origin) expressed in human K562 cells assessed as extrusion of Hoechst 33342 using Hoechst 33342 as substrate by flow cytometry. The series is classed as cell-based.

In series [2] the target is T1, Broad substrate specificity ATP-binding cassette transporter ABCG2. In words: Inhibition of ABCG2 (unknown origin) expressed in human NCI-H460 cells mediated pheophorbide A efflux for 2 to 20 hr by fluorescence plate reader analysis. The series is classed as cell-based.
The target is the same in series [3]. Description: Inhibition of ABCG2 (unknown origin) expressed in human S1M180 cells mediated [3H]-mitoxantrone efflux assessed as intracellular [3H]-mitoxantrone level by flow cytometry. The series is classed as cell-based.
Series [4] shares this target. Description: Inhibition of human ABCG2 expressed in human HEK293 cells mediated pheophorbide A efflux assessed as intracellular pheophorbide A accumulation for 45 mins by FACSort flow cytometry. The series is classed as cell-based.
Series [5] shares this target. Description: Inhibition of ABCG2 (unknown origin) expressed in human HEK293 cells assessed as BODIPY-Prazosin uptake and measured after 2 hrs by FACScan flow cytometry analysis. The series is classed as cell-based.
The target is the same in series [6]. Description: Inhibition of ABCG2 (unknown origin) expressed in human HEK293 cells mediated mitoxantrone efflux assessed as intracellular mitoxantrone level and measured after 30 mins by FACSflow cytometry analysis. The series is classed as cell-based. (In flow cytometry, cells or beads pass a laser one at a time.)
The target is the same in series [7].
Description: Inhibition of ABCG2 (unknown origin) expressed in human MCF7 cells membrane mediated [125I]iodoarylazidoprazosin photolabelling for 5 mins followed by UV light irradiation for 10 mins by radiometric scintillation analysis
Series [8] has the same target. In words: Inhibition of ABCG2 (unknown origin) expressed in human S1M180 cells assessed as intracellular accumulation of rhodamine 123 using rhodamine 123 as substrate by flow cytometry. The series is classed as cell-based.
Series [9] shares this target. In words: Inhibition of human ABCG2 expressed in dog MDCK-II-BCRP cells membrane vesicles mediated transport of 3[H]-methotrexate for 5 mins using [3H]-methotrexate as substrate by radiometric scintillation analysis. The series is classed as cell membranes, Membrane vesicle.
The target is the same in series [10]. In words: Inhibition of ABCG2 (unknown origin) expressed in human MCF7-VP cells mediated mitoxantrone efflux assessed as intracellular mitoxantrone level and measured after 45 mins by flow cytometry analysis. The series is classed as cell-based.
Series [11] has the same target. Conditions: saos-2.
Description: Inhibition of ABCG2 (unknown origin) expressed in human SAOS-2 cells mediated Hoechst 33342 efflux preincubated with compound for 15 mins followed by substrate addition and measured after 45 mins using Hoechst 33342 as substrate by flow cytometry
The target is the same in series [12]. In words: Inhibition of human ABCG2 expressing membrane vesicles assessed inhibition of BCRP- mediated transport of [3H]estrone 3-sulfate for 2 mins using [3H]-estrone sulfate as substrate by radiometric scintillation analysis. The series is classed as cell membranes, Membrane vesicle.
Series [13] has the same target. Description: Inhibition of ABCG2 (unknown origin) expressed in human MCF7 cells membrane mediated [125I]iodoarylazidoprazosin photolabelling for 10 mins followed by UV light irradiation for 10 mins by radiometric scintillation analysis. The series is classed as cell membranes.
The target is the same in series [14]. Description: Inhibition of ABCG2 (unknown origin) expressed in human HEK293 cells membrane vesicles assessed inhibition of BCRP- mediated transport of 3[H]-E1S for 1 to 5 mins using [3H]-estrone sulfate as substrate by rapid filtration technique. The series is classed as cell membranes, Membrane vesicle.

One may read the pIC50 as −log10 of the IC50, conventionally taken in molar units.

pIC50: −log10 of the molar value.

As to `COc1cc(Nc2c(C#N)cnc3cc(OCCCN4CCN(C)CC4)c(OC)cc23)c(Cl)cc1Cl` [BOSUTINIB], the pIC50 in series [1] was 5.70.

As for `COC(=O)[C@H]1[C@H]2C[C@@H]3c4[nH]c5cc(OC)ccc5c4CCN3C[C@H]2C[C@@H](OC(=O)c2cc(OC)c(OC)c(OC)c2)[C@@H]1OC` [RESERPINE], the pIC50 in [2] is 4.93.

Consider `CNC(=O)c1cc(Oc2ccc(NC(=O)Nc3ccc(Cl)c(C(F)(F)F)c3)c(F)c2)ccn1` [REGORAFENIB], for which the pIC50 in series [3] is 5.52.

Consider `COC(=O)C1=C(C)NC(C)=C(C(=O)OC)C1c1ccccc1[N+](=O)[O-]` [NIFEDIPINE], for which the pIC50 in series [4] is 4.30.

Turning to `CS(=O)(=O)c1ccc(C(=O)Nc2ccc(Cl)c(-c3ccccn3)c2)c(Cl)c1` [VISMODEGIB], in series [5], the pIC50 was 5.85.

For `c1ccc2c(c1)OCO2`, the pIC50 in series [6] is 6.03.

`CS(=O)(=O)CCNCc1ccc(-c2ccc3ncnc(Nc4ccc(OCc5cccc(F)c5)c(Cl)c4)c3c2)o1` [LAPATINIB] gave a pIC50 in [7] of 5.49.

Take `COc1cc2c(Nc3ccc(Br)cc3F)ncnc2cc1OCC1CCN(C)CC1` [VANDETANIB]: the pIC50 in [8] was 6.70.

Molecule `CC1=NN(c2ccc(C)c(C)c2)C(=O)/C1=N\Nc1cccc(-c2cccc(C(=O)O)c2)c1O` [ELTROMBOPAG] gave a pIC50 in series [9] of 5.51.

Regarding `COc1cc(/C=C/C(=O)CC(=O)/C=C/c2ccc(O)c(OC)c2)ccc1O` [CURCUMIN], the pIC50 in series [10] was 5.79.

In series [11], `CNC(=O)c1cc(Oc2ccc(NC(=O)Nc3ccc(Cl)c(C(F)(F)F)c3)cc2)ccn1` [SORAFENIB] gave a pIC50 of 5.51.

In turn, `COc1cc(Nc2ncc(F)c(Nc3ccc4c(n3)N(COP(=O)(O)O)C(=O)C(C)(C)O4)n2)cc(OC)c1OC` [FOSTAMATINIB] showed a pIC50 in [12] of 7.30.

Regarding `COc1cc2nccc(Oc3ccc(NC(=O)Nc4cc(C)on4)c(Cl)c3)c2cc1OC` [TIVOZANIB], the pIC50 in series [13] is 7.15.

Take `O[C@@H](c1cc(C(F)(F)F)nc2c(C(F)(F)F)cccc12)[C@H]1CCCCN1` [(S,R)-MEFLOQUINE]: in [14], the pIC50 was 4.74.
